# Data published in ChEMBL document CHEMBL1201862, “PubChem BioAssay data set” (2004).
# Activity calls are given as the source filed them.
# Assays:
# [1] = molecular target: T1, E3 ubiquitin-protein ligase XIAP (Homo sapiens, UniProt P98170); assay: XIAP antagonists, biochemical, IAP family, fluorescence polarization (AID 1018); assay type: functional
# [2] = molecular target: T1, E3 ubiquitin-protein ligase XIAP; assay: Counter Screen using XIAP-Bir3 for Chemical Antagonists of Bir1/2 domains of IAP-family anti-apoptotic proteins. [Related pubchem assays (depositor defined):AID1018, AID1449, AID1514, AID1638, AID1749, AID1750, AID488957, AID488963]
# [3] = molecular target: Lysine-specific demethylase 4C (Homo sapiens, UniProt Q9H3R0); assay: GASC-1 (JMJD2C) histone demethylase inhibitors, dose response, biochemical, DELFIA europium, cherry-picked samples (AID 488835); assay type: functional
# SUMO E1/E2 = SUMO E1/E2 (Homo sapiens, UniProt P63279+Q9UBE0+Q9UBT2); assay: SAR analysis of SUMOylation using HTRF in an in-Vitro dose response assay. [Related pubchem assays (depositor defined):AID2006, AID2011, AID2018, AID2069, AID2658]; assay type: functional
# Bcl-2-related protein A1 = molecular target: T2, Bcl-2-related protein A1 (Mus musculus, UniProt Q07440); assay type: functional;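 further: confirmatory dose–response counterscreen on Bfl-1, used to check hits from a UBC13 polyubiquitin inhibitor campaign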
# T2 sequence (Q07440 whole entry): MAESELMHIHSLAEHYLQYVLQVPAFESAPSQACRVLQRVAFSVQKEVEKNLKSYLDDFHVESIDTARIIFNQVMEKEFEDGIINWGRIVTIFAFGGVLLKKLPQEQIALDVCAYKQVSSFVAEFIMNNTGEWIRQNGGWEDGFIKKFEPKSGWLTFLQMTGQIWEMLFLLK
# [4] = molecular target: T3, Ubiquitin-conjugating enzyme E2 N (Homo sapiens, UniProt P61088); assay type: functional
# T3 sequence (P61088 whole entry): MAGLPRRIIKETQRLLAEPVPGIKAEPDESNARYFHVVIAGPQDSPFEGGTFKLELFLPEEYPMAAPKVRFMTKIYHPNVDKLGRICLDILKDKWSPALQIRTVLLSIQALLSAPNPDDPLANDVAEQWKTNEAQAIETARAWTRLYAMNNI
# [5] = molecular target: T3, Ubiquitin-conjugating enzyme E2 N; assay type: functional; remark: listed apart in the source
# [6] = molecular target: T4, DNA repair protein RAD52 homolog (Homo sapiens, UniProt P43351); assay type: functional, biochemical
# T4 sequence (P43351 whole entry): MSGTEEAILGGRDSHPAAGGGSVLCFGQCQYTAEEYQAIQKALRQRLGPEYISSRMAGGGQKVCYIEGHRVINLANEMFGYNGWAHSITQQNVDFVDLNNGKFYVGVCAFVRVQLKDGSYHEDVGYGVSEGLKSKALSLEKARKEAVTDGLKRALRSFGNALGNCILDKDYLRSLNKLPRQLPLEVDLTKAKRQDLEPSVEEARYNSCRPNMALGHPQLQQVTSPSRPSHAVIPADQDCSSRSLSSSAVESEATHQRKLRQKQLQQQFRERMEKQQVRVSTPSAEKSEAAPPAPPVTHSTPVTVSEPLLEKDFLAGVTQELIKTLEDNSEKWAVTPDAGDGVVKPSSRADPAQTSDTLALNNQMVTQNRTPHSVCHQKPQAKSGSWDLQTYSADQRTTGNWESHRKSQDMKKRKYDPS
# [7] = test system: Streptococcus sp. 'group A'; assay: growth inhibition of control SK(-) GAS strain, dose response, counter-screen for streptokinase expression inhibitor project, luminescence, kanamycin, BacTiterGlo, confirmation (AID 1900); assay type: functional, organism-based
# Trypsin = Trypsin (Sus scrofa, UniProt P00761); assay: porcine trypsin inhibitors, dose response, selectivity assay for Rce1 protease inhibitor project, biochemical, quenched peptide fluorescence, cherry-pick (AID 488789)
# CAAX prenyl protease 1 = CAAX prenyl protease 1 (Saccharomyces cerevisiae S288c, UniProt P47154); assay: Ste24 protease inhibitors, dose response, biochemical, S. cerevisiae, plate reader, cherry-pick (AID 488815)
# Streptococcus = assay: Group A Streptococcus viability loss, dose response, counter-screen for streptokinase expression inhibitor project, luminescence, BacTiterGlo (AID 1915); assay type: functional, organism-based;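 further: potency for reduction of bacterial viability or growth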
# T1 sequence (P98170 whole entry): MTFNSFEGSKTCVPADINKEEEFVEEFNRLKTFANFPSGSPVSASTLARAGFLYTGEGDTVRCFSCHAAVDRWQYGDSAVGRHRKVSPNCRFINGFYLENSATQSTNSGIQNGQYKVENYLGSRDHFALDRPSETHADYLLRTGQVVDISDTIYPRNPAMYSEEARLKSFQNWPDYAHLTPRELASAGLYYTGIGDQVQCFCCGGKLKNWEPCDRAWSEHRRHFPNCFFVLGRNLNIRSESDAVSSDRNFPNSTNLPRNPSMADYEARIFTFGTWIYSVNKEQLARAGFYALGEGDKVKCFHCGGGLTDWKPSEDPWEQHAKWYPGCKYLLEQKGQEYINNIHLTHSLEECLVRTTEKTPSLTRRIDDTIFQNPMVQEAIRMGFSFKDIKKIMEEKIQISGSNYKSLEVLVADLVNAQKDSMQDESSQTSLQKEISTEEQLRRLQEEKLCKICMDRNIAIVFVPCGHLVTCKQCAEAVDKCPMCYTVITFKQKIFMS
# Sequence of Trypsin (P00761 whole entry): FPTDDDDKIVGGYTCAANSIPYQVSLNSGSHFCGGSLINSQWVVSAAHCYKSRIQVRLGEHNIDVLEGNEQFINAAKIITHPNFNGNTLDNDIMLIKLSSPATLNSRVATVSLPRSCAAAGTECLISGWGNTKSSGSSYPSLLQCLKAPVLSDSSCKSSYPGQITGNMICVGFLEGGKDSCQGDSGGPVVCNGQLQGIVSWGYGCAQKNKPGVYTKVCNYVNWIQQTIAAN
# Sequence of SUMO E1/E2 (Q9UBE0 whole entry): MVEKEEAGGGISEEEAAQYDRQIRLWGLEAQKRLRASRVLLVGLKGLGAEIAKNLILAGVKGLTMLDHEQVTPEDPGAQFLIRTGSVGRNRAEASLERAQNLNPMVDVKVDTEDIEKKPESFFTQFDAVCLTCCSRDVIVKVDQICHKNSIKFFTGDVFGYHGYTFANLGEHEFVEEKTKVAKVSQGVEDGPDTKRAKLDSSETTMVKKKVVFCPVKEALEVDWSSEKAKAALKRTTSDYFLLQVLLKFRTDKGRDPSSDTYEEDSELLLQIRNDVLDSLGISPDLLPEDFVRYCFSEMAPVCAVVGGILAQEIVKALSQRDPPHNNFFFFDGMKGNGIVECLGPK
# Sequence of SUMO E1/E2 (Q9UBT2 whole entry): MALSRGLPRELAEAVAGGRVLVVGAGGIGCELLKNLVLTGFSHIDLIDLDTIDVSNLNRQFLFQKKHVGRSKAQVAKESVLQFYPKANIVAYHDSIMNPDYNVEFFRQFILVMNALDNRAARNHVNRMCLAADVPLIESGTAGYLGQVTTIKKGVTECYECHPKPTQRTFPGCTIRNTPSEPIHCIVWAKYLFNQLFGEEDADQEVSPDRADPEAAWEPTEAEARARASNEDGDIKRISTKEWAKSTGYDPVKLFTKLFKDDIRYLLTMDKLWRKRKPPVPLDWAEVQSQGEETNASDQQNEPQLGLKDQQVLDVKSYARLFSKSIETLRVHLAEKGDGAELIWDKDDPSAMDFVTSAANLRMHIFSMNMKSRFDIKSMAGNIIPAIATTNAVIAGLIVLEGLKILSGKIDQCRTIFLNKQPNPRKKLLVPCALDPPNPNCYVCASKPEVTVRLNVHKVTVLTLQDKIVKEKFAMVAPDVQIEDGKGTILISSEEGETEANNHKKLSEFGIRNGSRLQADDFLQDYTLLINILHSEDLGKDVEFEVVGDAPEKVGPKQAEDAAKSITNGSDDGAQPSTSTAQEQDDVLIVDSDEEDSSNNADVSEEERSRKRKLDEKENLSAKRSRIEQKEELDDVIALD
# Sequence of SUMO E1/E2 (P63279 whole entry): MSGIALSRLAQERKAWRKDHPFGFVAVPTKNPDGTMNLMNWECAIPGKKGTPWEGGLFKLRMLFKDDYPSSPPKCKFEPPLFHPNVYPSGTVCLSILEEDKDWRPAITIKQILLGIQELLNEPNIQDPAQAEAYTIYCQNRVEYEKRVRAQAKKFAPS
# Sequence of CAAX prenyl protease 1 (P47154 whole entry): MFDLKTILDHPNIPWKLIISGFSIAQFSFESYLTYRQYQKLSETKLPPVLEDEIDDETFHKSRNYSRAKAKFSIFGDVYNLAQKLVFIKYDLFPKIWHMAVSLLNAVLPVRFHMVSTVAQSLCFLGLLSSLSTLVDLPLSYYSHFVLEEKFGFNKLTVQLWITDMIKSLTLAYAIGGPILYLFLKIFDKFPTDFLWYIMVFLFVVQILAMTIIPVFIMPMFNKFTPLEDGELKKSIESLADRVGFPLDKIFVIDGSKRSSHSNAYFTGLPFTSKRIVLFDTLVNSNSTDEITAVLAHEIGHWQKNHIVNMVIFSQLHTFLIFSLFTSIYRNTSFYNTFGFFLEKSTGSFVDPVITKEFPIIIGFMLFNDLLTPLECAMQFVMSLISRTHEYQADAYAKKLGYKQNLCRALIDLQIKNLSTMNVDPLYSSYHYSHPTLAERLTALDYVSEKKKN
# Sequence of Lysine-specific demethylase 4C (Q9H3R0 whole entry): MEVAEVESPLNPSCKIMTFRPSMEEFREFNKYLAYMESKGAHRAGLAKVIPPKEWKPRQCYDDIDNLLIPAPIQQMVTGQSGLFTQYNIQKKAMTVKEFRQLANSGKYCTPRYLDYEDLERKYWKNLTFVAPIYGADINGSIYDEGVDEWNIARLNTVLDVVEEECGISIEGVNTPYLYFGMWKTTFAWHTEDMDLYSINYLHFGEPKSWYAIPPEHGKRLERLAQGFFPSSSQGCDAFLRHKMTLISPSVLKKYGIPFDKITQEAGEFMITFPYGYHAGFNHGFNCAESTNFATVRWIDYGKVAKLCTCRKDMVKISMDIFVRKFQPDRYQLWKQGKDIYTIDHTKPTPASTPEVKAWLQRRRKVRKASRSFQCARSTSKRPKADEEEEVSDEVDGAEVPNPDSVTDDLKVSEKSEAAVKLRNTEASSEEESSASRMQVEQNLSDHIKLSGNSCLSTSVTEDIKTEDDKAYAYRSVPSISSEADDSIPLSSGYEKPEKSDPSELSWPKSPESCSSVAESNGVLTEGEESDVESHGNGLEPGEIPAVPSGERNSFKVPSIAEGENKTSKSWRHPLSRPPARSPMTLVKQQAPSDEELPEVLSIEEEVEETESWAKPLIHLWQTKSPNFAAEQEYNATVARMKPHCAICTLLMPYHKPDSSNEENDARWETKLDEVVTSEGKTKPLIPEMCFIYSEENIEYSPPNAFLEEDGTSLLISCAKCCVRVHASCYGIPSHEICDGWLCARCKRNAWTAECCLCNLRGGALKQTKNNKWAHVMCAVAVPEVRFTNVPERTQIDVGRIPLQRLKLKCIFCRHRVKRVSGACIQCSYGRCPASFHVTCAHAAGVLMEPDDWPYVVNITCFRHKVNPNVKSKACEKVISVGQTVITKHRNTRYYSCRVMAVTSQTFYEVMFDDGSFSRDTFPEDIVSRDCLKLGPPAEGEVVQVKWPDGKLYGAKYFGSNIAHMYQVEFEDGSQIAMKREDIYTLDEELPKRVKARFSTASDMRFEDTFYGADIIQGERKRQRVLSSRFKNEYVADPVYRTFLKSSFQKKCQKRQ
compound,measurement,setting,value
Cc1ccc2c(c1)C(c1ccccc1)N(C(=O)c1ccc(Br)o1)CC(=O)N2 (configuration not stated),IC50,[1],> 100 µM (not active)
same,IC50,[2],> 100 µM (inactive)
C=CCn1c(C)c(C=C2C(=O)NC(=O)NC2=O)c2ccccc21,AC50,[3],2.9 µM (active)
COc1ccc(CNC(=O)COC(=O)c2cc(-c3cccs3)nc3ccccc23)cc1,IC50,SUMO E1/E2,43.3 µM (active)
CCN(CC)CCNC(=O)c1ccc(NC(=O)c2cc(-c3ccncc3)nc3ccccc23)cc1,IC50,Bcl-2-related protein A1,> 20 µM (inactive)
same,IC50,[4],> 20 µM (inactive)
same,IC50,[5],17 µM (active)
same,AC50,[6],20.4 µM (active)
CC1COc2c(N3CCN(C)CC3)c(F)cc3c(=O)c(C(=O)O)cn1c23 (configuration not stated) [OFLOXACIN],EC50,[7],3.03 µM (active)
same,AC50,Trypsin,9.26 µM (active)
same,AC50,CAAX prenyl protease 1,1.95 µM (active)
same,EC50,Streptococcus,4.11 µM (active)
